In brackets after ≈: the same amount, converted by molar mass. Read-outs that look alike come from different tables or passages of the source.
Tests used:
C. ramosum = assay: MIC, in vitro antibacterial activity (standard strains); format: cell-based; conditions: 10^6 cells/ml, Gram +
P. aeruginosa IID 1210 = assay: as above; format: cell-based, Pseudomonas aeruginosa; conditions: 10^6 cells/ml, Gram -
[1] = system: Streptococcus pyogenes (S-8); assay: as above; format: cell-based
S. pneumoniae IID 552 = assay: as above; format: cell-based; conditions: 10^6 cells/ml, Gram +
[2] = system: Klebsiella pneumoniae KY(GN)6445; assay: as above; format: cell-based; conditions: 10^6 cells/ml, Gram -
[3] = system: Bacillus subtilis PCI 219; assay: as above; format: cell-based; conditions: 10^6 cells/ml, Gram +
[4] = system: Serratia marcescens IID 618; assay: as above; format: cell-based; conditions: 10^6 cells/ml, Gram -
E. faecalis IID 682 = assay: as above; format: cell-based
[5] = system: Alcaligenes faecalis 0114002; assay: as above; format: cell-based
K. pneumoniae 1-220S = assay: as above; format: cell-based, Klebsiella pneumoniae; conditions: 10^6 cells/ml, Gram -
B. fragilis 0558 = assay: as above; format: cell-based, Bacteroides fragilis; conditions: 10^6 cells/ml, Gram -
S. epidermidis IID 866 = assay: as above; format: cell-based; conditions: 10^6 cells/ml, Gram +
[6] = system: Bacteroides fragilis GM 7000; assay: as above; format: cell-based; conditions: 10^6 cells/ml, Gram -
E. coli ML 4707 = assay: as above; format: cell-based, Escherichia coli; conditions: Gram -, Table 1
[7] = system: Clostridium difficile I-E; assay: as above; format: cell-based; conditions: Clostridioides difficile; 10^6 cells/ml; Gram +
[8] = system: Morganella morganii IID 602; assay: as above; format: cell-based; conditions: 10^6 cells/ml, Gram -
B. fragilis 25285 = assay: as above; format: cell-based, Bacteroides fragilis; conditions: 10^6 cells/ml, Gram -
S. aureus Smith = assay: as above; format: cell-based, Staphylococcus aureus; conditions: 10^6 cells/ml, Gram +
P. aeruginosa IFO 12689 = assay: as above; format: cell-based, Pseudomonas aeruginosa; conditions: 10^6 cells/ml, Gram -
[9] = system: Enterobacter cloacae IID 977; assay: as above; format: cell-based; conditions: 10^6 cells/ml, Gram -
[10] = system: S. aureus IID 670 (Terajima); assay: as above; format: cell-based, Staphylococcus aureus
P. maltophilia GIFU 2491 = assay: as above; format: cell-based; conditions: 10^6 cells/ml, Gram -
[11] = system: Pseudomonas aeruginosa V-1; assay: as above; format: cell-based; conditions: 10^6 cells/ml, Gram -
E. coli ATCC 10536 = assay: as above; format: cell-based, Escherichia coli; conditions: 10^6 cells/ml, Gram -
[12] = system: Proteus vulgaris IFO 3167; assay: as above; format: cell-based; conditions: 10^6 cells/ml, Gram -
F. varium KYA 8501 = assay: as above; format: cell-based; conditions: 10^6 cells/ml, Gram -
P. mirabilis IID 994 = assay: as above; format: cell-based; conditions: 10^6 cells/ml, Gram -
[13] = system: Escherichia coli NIHJ JC-2; assay: as above; format: cell-based; conditions: 10^6 cells/ml, Gram -
[14] = system: Yersinia enterocolitica IID 981; assay: as above; format: cell-based; conditions: 10^6 cells/ml, Gram -
[15] = system: Salmonella enteritidis IID 604; assay: as above; format: cell-based; conditions: 10^6 cells/ml, Gram -
Shigella sonnei IID 969 = assay: as above; format: cell-based; conditions: 10^6 cells/ml, Gram -
Description: Minimal inhibitory concentrations (MICs) were determined in accordance with the method recommended by Japan Society of Chemotherapy.

[16] = system: Acinetobacter anitratus IID 876; assay: as above; format: cell-based
[17] = system: Staphylococcus aureus 209 P; assay: as above; format: cell-based; conditions: 10^6 cells/ml, Gram +
S. pyogenes IID 692 = assay: as above; format: cell-based, Streptococcus pyogenes; conditions: 10^6 cells/ml, Gram +
[18] = system: Citrobacter freundii IID 976; assay: as above; format: cell-based; conditions: 10^6 cells/ml, Gram -
P. cepacia GIFU 518 = assay: as above; format: cell-based; conditions: 10^6 cells/ml; Gram -
F. necrophorum S-45 = assay: as above; format: cell-based; conditions: 10^6 cells/ml; Gram -
C. perfringens KYA 13123 = assay: microbe, parasite or virus in culture; format: cell-based; conditions: 10^6 cells/ml; Gram +
[19] = system: Fusobacterium mortiferum 4249; assay: MIC, in vitro antibacterial activity (standard strains); format: cell-based; conditions: 10^6 cells/ml; Gram -
E. limosum KYA 8486 = assay: as above; format: cell-based; conditions: 10^6 cells/ml; Gram +
[20] = system: Propionibacterium acens 11828; assay: as above; format: cell-based; conditions: 10^6 cells/ml; Gram +
B. distasonis 8503 = assay: as above; format: cell-based; conditions: 10^6 cells/ml; Gram -
[21] = system: Peptostreptococcus anaerobius KYA 27337; assay: as above; format: cell-based; conditions: 10^6 cells/ml; Gram +
[22] = system: Eubacterium lentum GAI 5242; assay: as above; format: cell-based; conditions: 10^6 cells/ml; Gram +
[23] = system: B. thetaiotaomicron (0661); assay: as above; format: cell-based; conditions: 10^6 cells/ml; Gram -
B. vulgatus KYA 29327 = assay: as above; format: cell-based; conditions: 10^6 cells/ml; Gram -
Pst. micros UPI 5464-1 = assay: as above; format: cell-based; conditions: 10^6 cells/ml; Gram +
[24] = system: Peptococcus magnus KY 017; assay: as above; format: cell-based; conditions: 10^6 cells/ml; Gram +
[25] = system: Veillonella parvula KYA 10790; assay: as above; format: cell-based; conditions: 10^6 cells/ml; Gram -

CCn1cc(C(=O)O)c(=O)c2cc(F)c(N3CCNCC3)cc21 [NFLX, norfloxacin, reference compound]
MIC (C. ramosum; Thomasclavelia ramosa, read-out: MIC): 50 µg/mL (≈ 157 µM) | MIC (P. aeruginosa IID 1210; Pseudomonas aeruginosa, IID1210, read-out: MIC): 3.13 µg/mL (≈ 9.8 µM) | MIC ([1]; Streptococcus pyogenes): 1.56 µg/mL (≈ 4.89 µM) | MIC (S. pneumoniae IID 552; Streptococcus pneumoniae, IID552, read-out: MIC): 3.13 µg/mL (≈ 9.8 µM) | MIC ([2]; Klebsiella pneumoniae, read-out: MIC): 0.05 µg/mL (≈ 0.157 µM) | MIC ([3]; Bacillus subtilis, PCI219, read-out: MIC): 0.1 µg/mL (≈ 0.313 µM) | MIC ([4]; Serratia marcescens, IID618, read-out: MIC): 0.05 µg/mL (≈ 0.157 µM) | MIC (E. faecalis IID 682; Enterococcus faecalis, IID682): 1.56 µg/mL (≈ 4.89 µM) | MIC ([5]; Alcaligenes faecalis, 0114002): 1.56 µg/mL (≈ 4.89 µM) | MIC (K. pneumoniae 1-220S; Klebsiella pneumoniae, 1220S, read-out: MIC): 0.1 µg/mL (≈ 0.313 µM) | MIC (B. fragilis 0558; Bacteroides fragilis, 0558, read-out: MIC): 25 µg/mL (≈ 78.3 µM) | MIC (S. epidermidis IID 866; Staphylococcus epidermidis, IID866, read-out: MIC): 0.78 µg/mL (≈ 2.44 µM) | MIC ([6]; Bacteroides fragilis, GM7000, read-out: MIC): 25 µg/mL (≈ 78.3 µM) | MIC (E. coli ML 4707; Escherichia coli, ML4707, 10^6 cells/ml, read-out: MIC): 0.05 µg/mL (≈ 0.157 µM) | MIC [7]: 50 µg/mL | MIC ([8]; Morganella morganii, IID602, read-out: MIC): 0.05 µg/mL (≈ 0.157 µM) | MIC (B. fragilis 25285; Bacteroides fragilis, 25285, read-out: MIC): 25 µg/mL (≈ 78.3 µM) | MIC (S. aureus Smith; Staphylococcus aureus, read-out: MIC): 0.78 µg/mL (≈ 2.44 µM) | MIC (P. aeruginosa IFO 12689; Pseudomonas aeruginosa, IFO12689, read-out: MIC): 0.78 µg/mL (≈ 2.44 µM) | MIC ([9]; Enterobacter cloacae, IID977, read-out: MIC): 0.1 µg/mL (≈ 0.313 µM) | MIC ([10]; Staphylococcus aureus, IID670): 1.56 µg/mL (≈ 4.89 µM) | MIC (P. maltophilia GIFU 2491; Stenotrophomonas maltophilia, GIFU2491, read-out: MIC): 6.25 µg/mL (≈ 19.6 µM) | MIC ([11]; Pseudomonas aeruginosa, V1, read-out: MIC): 0.39 µg/mL (≈ 1.22 µM) | MIC (E. coli ATCC 10536; Escherichia coli, ATCC10536, read-out: MIC): 0.05 µg/mL (≈ 0.157 µM) | MIC ([12]; Proteus vulgaris, IFO3167, read-out: MIC): 0.05 µg/mL (≈ 0.157 µM) | MIC (F. varium KYA 8501; Fusobacterium varium, KYA8501, read-out: MIC): 100 µg/mL (≈ 313 µM) | MIC (P. mirabilis IID 994; Proteus mirabilis, IID994, read-out: MIC): 0.05 µg/mL (≈ 0.157 µM) | MIC ([13]; Escherichia coli, NIHJJC2, read-out: MIC): 0.0563 µg/mL (≈ 0.176 µM) | MIC ([14]; Yersinia enterocolitica, IID981, read-out: MIC): 0.1 µg/mL (≈ 0.313 µM) | MIC ([15]; Salmonella enterica, read-out: MIC): 0.05 µg/mL (≈ 0.157 µM) | MIC (Shigella sonnei IID 969; Shigella sonnei, IID969, read-out: MIC): 0.05 µg/mL (≈ 0.157 µM) | MIC ([16]; Acinetobacter calcoaceticus, IID876): 1.56 µg/mL (≈ 4.89 µM) | MIC ([17]; Staphylococcus aureus, 209P, read-out: MIC): 0.78 µg/mL (≈ 2.44 µM) | MIC (S. pyogenes IID 692; Streptococcus pyogenes, IID692, read-out: MIC): 3.13 µg/mL (≈ 9.8 µM) | MIC ([18]; Citrobacter freundii, IID976, read-out: MIC): 0.05 µg/mL (≈ 0.157 µM)

7-(3-Aminomethyl-4-methyl-1-pyrrolidinyl)-1-cyclopropyl-6,8-difluoro-1,4-dihydro-4-oxo-3-quinolinecarboxylic acid [Example 2]
MIC (C. ramosum): 0.78 µg/mL | MIC (P. aeruginosa IID 1210): 0.78 µg/mL | MIC (P. cepacia GIFU 518): 0.39 µg/mL | MIC ([1]; 10^6 cells/ml, Gram +): 0.05 µg/mL | MIC (S. pneumoniae IID 552): 0.05 µg/mL | MIC [2]: 0.05 µg/mL | MIC [3]: 0.0125 µg/mL | MIC [4]: 0.10 µg/mL | MIC (E. faecalis IID 682; 10^6 cells/ml, Gram +): 0.10 µg/mL | MIC ([5]; 10^6 cells/ml, Gram -): 0.20 µg/mL | MIC (F. necrophorum S-45): 0.39 µg/mL | MIC (K. pneumoniae 1-220S): 0.05 µg/mL | MIC (B. fragilis 0558): 0.39 µg/mL | MIC (S. epidermidis IID 866): 0.025 µg/mL | MIC (C. perfringens KYA 13123): 0.20 µg/mL | MIC [6]: 0.78 µg/mL | MIC [19]: 0.39 µg/mL | MIC (E. limosum KYA 8486): 1.56 µg/mL | MIC (E. coli ML 4707; 10^6 cells/ml): 0.025 µg/mL | MIC [8]: 0.10 µg/mL | MIC [20]: 0.39 µg/mL | MIC (B. distasonis 8503): 3.13 µg/mL | MIC (B. fragilis 25285): 0.39 µg/mL | MIC [21]: 0.10 µg/mL | MIC (S. aureus Smith): 0.025 µg/mL | MIC (P. aeruginosa IFO 12689): 0.78 µg/mL | MIC [9]: 0.05 µg/mL | MIC ([10]; 10^6 cells/ml, Gram +): 0.025 µg/mL | MIC (P. maltophilia GIFU 2491): 0.20 µg/mL | MIC [22]: 0.78 µg/mL | MIC [11]: 0.10 µg/mL | MIC (E. coli ATCC 10536): 0.025 µg/mL | MIC [23]: 0.78 µg/mL | MIC [12]: 0.05 µg/mL | MIC (F. varium KYA 8501): 0.78 µg/mL | MIC (P. mirabilis IID 994): 0.05 µg/mL | MIC [13]: 0.025 µg/mL | MIC [14]: 0.05 µg/mL | MIC [15]: 0.05 µg/mL | MIC (B. vulgatus KYA 29327): 0.78 µg/mL | MIC (Shigella sonnei IID 969): 0.025 µg/mL | MIC ([16]; 10^6 cells/ml, Gram -): 0.05 µg/mL | MIC (Pst. micros UPI 5464-1): 0.39 µg/mL | MIC [24]: 0.20 µg/mL | MIC [25]: 0.39 µg/mL | MIC [17]: 0.025 µg/mL | MIC (S. pyogenes IID 692): 0.05 µg/mL | MIC [18]: 0.05 µg/mL
